We go through 1 molecule from EP0227593A1, “Use of chelating agents” (THE HOSPITAL FOR SICK CHILDREN, priority 1985, dated 1987).

The structures appear in SMILES notation. Where only a bound is given, the exact number is not on record here.

The subject of one experiment is blasts. In words: Marrow aspirate and cytochemistry at conclusion of the 20-day treatment protocol. The experiment is classed as in vivo, human. From the text: In contrast to the marrow aspirate prior to DFO therapy, 60 % of the blasts were positive for non-specific esterase and staining could be inhibited by fluoride.
For a further experiment, the system named is patient's PB blast cells. The experiment can be described thus: ALL blast colony assay. The experiment is classed as cell-based. As to conditions: Homo sapiens. The protocol: ALL Blast Colony Assay: The assay we used is a modification of previously described methods. T-cell depletion: Post-Ficoll mononuclear BM cells were incubated with neuraminidase sensitized sheep erthrocytes (SRBC) at 4°C for 2 hours, followed by gradient centrifugation. This procedure was repeated twice. Cells at the interface contained less than 0.5 % T-cells as assessed by AET sensitized SRBC rosette formation and using anti-Leu-4 and anti-Leu-5 monoclonal anti-T-cell antibodies (Becton Dickinson, CA). T-lymphocytes were obtained by recovery of rosetted cells from the pellet following lysis with Tris-buffered ammonium chloride (Sigma, St. Louis, MO). Feeder Cells: Post-Ficoll normal donors' PB cells were depleted of adherent cells by incubation on plastic Petri dishes with 10 % fetal calf serum for 90 min. at 37°C. […]
Cell Culture Procedure: 2 x 10⁵ T-depleted cells were incubated with 40 % RPMI-methylcellulose, 20 % PHA-LCM, 10 % FCS, irradiated feeder cells (10⁵/dish), 16.6 % RPMI in 35 mm Petri dishes. […] Colonies were counted at day 4. […] For control, 2 x 10⁵ irradiated feeder cells were cultured in the same assay system in each experiment to exclude their potential for colony formation Immunocytochemical Method: The cell surface antigens of air dried smears were detected using monoclonal antibodies and intestinal alkaline phosphatase, as previously described. […]

In the case of `CC(=O)N(O)CCCCCNC(=O)CCC(=O)N(O)CCCCCNC(=O)CCC(=O)N(O)CCCCCN` [DFO, desferioxamine methanesulfonate], the “blasts in marrow aspirate” value in the experiment on blasts (conclusion of the 20-day treatment protocol (DFO and Ara-C)) is listed as 60%. For the same molecule, the “blasts positive for non-specific esterase” value with blasts (marrow aspirate, conclusion of the 20-day treatment protocol) is on record as 60%. Moreover, the inhibition at 2.15 µM in the experiment on patient's PB blast cells (2.15 µM DFO, read-out: reduction in blast colonies) worked out at 70%. Besides, the minimal effective concentration with patient's PB blast cells (patient's PB blast cells, read-out: DFO concentrations with significant decline in blast colonies) was greater than 1.25 µM.
